In patent US9630941B2 (priority 2008, dated 2017):

How the values were obtained:
[1] = Aqueous solubility, pH dependent; assay type: physicochemical
[2] = Chemical stability pH dependent at 25° C.; assay type: physicochemical
Description: B. Chemical Stability pH Dependent at 25° C.

[3] = Thermal stability, 120° C. for 10 min; assay type: physicochemical; conditions: for Drug remaining / Drug remaining (%) / CBN content of the sample after heating / THC content of the sample after heating: 120° C. for 10 min; for Drug remaining (%): % of initial; for Initial, μg (drug itself) / CBN content of the sample, initial / THC content of the sample, initial: before heating
Description: C. Thermal Stability—120° C. for 10 min.

[4] = Bioreversion: plasma stability, porcine plasma; assay type: in vitro ADME
[5] = Porcine buccal tissue homogenate stability; assay type: in vitro ADME; conditions: protein concentration 2 mg/ml
Description: (§1) b. Porcine Buccal Tissue Homogenate Stability
(§2) Protein Concentration 2 mg/ml

[6] = Control (IPBS) stability for the buccal homogenate study; assay type: physicochemical
Description: as §1, §2

| Structure (SMILES) | Aqueous Solubility ([1]; H20) [µg/mL] | Aqueous Solubility ([1]; Water) [µM] | Aqueous Solubility ([1]; pH 1.2) [µg/mL] | Aqueous Solubility ([1]; pH 2) [µg/mL] | Aqueous Solubility ([1]; pH 3) [µg/mL] | Aqueous Solubility ([1]; pH 4) [µg/mL] | Aqueous Solubility ([1]; pH 5) [µg/mL] | Aqueous Solubility ([1]; pH 6) [µg/mL] | Aqueous Solubility ([1]; pH 7) [µg/mL] | Aqueous Solubility ([1]; pH 8) [µg/mL] | Aqueous Solubility ([1]; pH 9) [µg/mL] | First order rate constant ([2]; Buffer pH 5.0, 25° C.) | First order rate constant ([2]; Buffer pH 7.0, 25° C.) | First order rate constant ([2]; Buffer pH 9.0, 25° C.) | Drug loading (%) [3] [%] | Drug remaining [3] [µg] | Drug remaining (%) [3] | Initial, μg (drug itself) [3] [µg] | K [4] | T1/2 [4] | also measured |
| --- | --- | --- | --- | --- | --- | --- | --- | --- | --- | --- | --- | --- | --- | --- | --- | --- | --- | --- | --- | --- | --- |
| CCCCCc1cc(OC(=O)[C@@H](N)CCC(N)=O)c2c(c1)OC(C)(C)[C@@H]1CCC(C)=C[C@@H]21 [THC-Glutaminate (9), Δ^9-THC-glutaminate] | 1.61 ± 0.76 | 3.63 ± 1.72 | 59.55 ± 0.02 | 162.82 ± 14.39 | 46.29 ± 1.13 | 22.24 ± 2.20 | 5.76 ± 0.02 | 2.15 ± 0.32 | 0.52 ± 0.06 | 0.34 ± 0.33 | 0.16 ± 0.02 | 70.23 ± 0.92 ×10^−3 h^−1 | 153.42 ± 4.26 ×10^−3 h^−1 | 756.35 ± 106.61 ×10^−3 h^−1 | 63.41 ± 2.57 | 721.31 ± 73.76 | (75.75 ± 4.69) % | 951.08 ± 38.55 | 53.41 ± 5.84 ×10^−2 min^−1 | 1.31 ± 0.14 min | Aqueous Solubility ([1]; pH 1.2, listed as THC-Glutamine): 134.25 ± 0.05 µM; Aqueous Solubility ([1]; pH 2, listed as THC-Glutamine): 367.06 ± 32.44 µM; Aqueous Solubility ([1]; pH 3, listed as THC-Glutamine): 104.36 ± 2.55 µM; Aqueous Solubility ([1]; pH 4, listed as THC-Glutamine): 50.13 ± 4.97 µM; Aqueous Solubility ([1]; pH 5, listed as THC-Glutamine): 12.99 ± 0.04 µM; Aqueous Solubility ([1]; pH 6, listed as THC-Glutamine): 4.84 ± 0.72 µM; Aqueous Solubility ([1]; pH 7, listed as THC-Glutamine): 1.18 ± 0.14 µM; Aqueous Solubility ([1]; pH 8, listed as THC-Glutamine): 0.76 ± 0.74 µM; Aqueous Solubility ([1]; pH 9, listed as THC-Glutamine): 0.35 ± 0.04 µM; First order rate constant ([2]; Water, 25° C.): 32.72 ± 15.19 ×10^−3 h^−1; K [5]: 40.41 ± 3.30 ×10^−3 min^−1; T1/2 [5]: 17.21 ± 1.40 min; K [6]: 26.30 ± 0.14 ×10^−3 min^−1 |
| CCCCCc1cc(OC(=O)CCCc2ccc(NC(=O)CCC(=O)O)cc2)c2c(c1)OC(C)(C)[C@@H]1CCC(C)=C[C@@H]21 [THC-APB-HS (14), THC-4(4-aminophenyl)butyrate-hemisuccinate] |  |  |  |  |  |  |  |  |  |  |  | 0.00368 h⁻¹ | Stable | Stable | 96.66 ± 2.18 | 1518.84 ± 34.38 | (104.81 ± 4.74) % | 1449.90 ± 32.76 | Stable | Stable | First order rate constant ([2]; Water, 25° C.): 0.00481 h⁻¹; CBN content of the sample after heating [3]: 38.36 ± 9.70 µg; THC content of the sample after heating [3]: 0 µg; CBN content of the sample, initial [3]: 47.63 ± 9.92 µg; THC content of the sample, initial [3]: 0 µg |
| CCCCCc1cc(OC(=O)[C@@H](N)C(C)C)c2c(c1)OC(C)(C)C1CCC(C)=CC21.O=C(O)CC(=O)O (stereo partly shown) [THC-Valinate malonate] | 1.21 ± 0.61 | 2.33 ± 1.19 | 53.63 ± 1.09 | 118.42 ± 5.07 | 50.03 ± 1.80 | 13.92 ± 1.56 | 1.22 ± 0.00 | 0.13 ± 0.02 | 0.05 ± 0.02 | 0.06 ± 0.00 | 0.14 ± 0.02 |  |  |  |  |  |  |  |  |  | Aqueous Solubility ([1]; pH 1.2, listed as THC-Valine malonate): 103.61 ± 2.11 µM; Aqueous Solubility ([1]; pH 2, listed as THC-Valine malonate): 228.78 ± 9.79 µM; Aqueous Solubility ([1]; pH 3, listed as THC-Valine malonate): 96.65 ± 3.49 µM; Aqueous Solubility ([1]; pH 4, listed as THC-Valine malonate): 26.88 ± 3.01 µM; Aqueous Solubility ([1]; pH 5, listed as THC-Valine malonate): 2.36 ± 0.01 µM; Aqueous Solubility ([1]; pH 6, listed as THC-Valine malonate): 0.25 ± 0.04 µM; Aqueous Solubility ([1]; pH 7, listed as THC-Valine malonate): 0.11 ± 0.03 µM; Aqueous Solubility ([1]; pH 8, listed as THC-Valine malonate): 0.12 ± 0.01 µM; Aqueous Solubility ([1]; pH 9, listed as THC-Valine malonate): 0.27 ± 0.03 µM |
| CCCCCc1cc(OC(=O)[C@@H](N)Cc2c[nH]c3ccccc23)c2c(c1)OC(C)(C)[C@@H]1CCC(C)=C[C@@H]21 [THC-Tryptophanate (10), Δ^9-THC-tryptophinate] |  |  |  |  |  |  |  |  |  |  |  | 0.00829 h⁻¹ | 0.03803 h⁻¹ |  | 89.84 ± 4.53 | 1216.70 ± 32.88 | (90.47 ± 7.00) % | 1347.57 ± 67.93 | 48.55 ± 5.90 ×10^−2 min^−1 | 1.44 ± 0.17 min | CBN content of the sample after heating [3]: 16.63 ± 2.63 µg; THC content of the sample after heating [3]: 96.10 ± 16.64 µg; CBN content of the sample, initial [3]: 25.59 ± 2.26 µg; THC content of the sample, initial [3]: 97.38 ± 6.39 µg; K [5]: 9.06 ± 1.26 ×10^−3 min^−1; T1/2 [5]: 77.27 ± 10.73 min; K [6]: 0.77 ± 0.02 ×10^−3 min^−1 |
| CCCCCc1cc(OC(=O)C(N)Cc2c[nH]c3ccccc23)c2c(c1)OC(C)(C)C1CCC(C)=CC21.O=C(O)CC(=O)O (stereo not shown) [THC-Tryptophanate Malonate] | 13.27 ± 14.72 | 8.02 ± 8.90 | 1.58 ± 0.19 | 4.65 ± 0.31 |  |  |  |  |  |  |  |  |  |  |  |  |  |  |  |  | Aqueous Solubility ([1]; pH 1.2, listed as THC-Tryptophan Malonate): 0.95 ± 0.12 µM; Aqueous Solubility ([1]; pH 2, listed as THC-Tryptophan Malonate): 2.81 ± 0.19 µM |
